Key:
[1] = target: mouse E-cadherin (CDH1) (mouse) (UniProt P09803); test: flow cytometry, undifferentiated mouse R1 ES cells, biotinylated anti-CDH1 antibody then PE-conjugated TotalSeq streptavidin
[2] = target: mouse E-cadherin (CDH1) (mouse) (UniProt P09803); test: flow cytometry, differentiated R1 ES cells (only a part of them expresses CDH1), biotinylated anti-CDH1 antibody then PE-conjugated TotalSeq streptavidin
[3] = test system: undifferentiated mouse ES cells (R1 line); test: Flow cytometry of labeling efficiency (PE-positive cells), USB method vs Ab method; format: cell-based; conditions: TotalSeq PE streptavidin detection
Description: Single cells containing 0.5-2×10^6 […] CELLs prepared in “3. […] After incubation on ice, 3 mL ice-cold PBS containing 3% FBS was added to the reaction, and the cells were centrifuged at 4° C., 300 g for 5 minutes. The cells were further washed twice with Cell Staining Buffer (BioLegend, Inc., 420201), and then kept on ice until barcoded oligo DNA binding in the next step. Single cells containing 0.5-2×10^6 […] CELLs prepared in “3. […] An ice-cold primary antibody solution (0.05 μg/mL biotinylated CDC324 [E-cadherin] rat monoclonal antibody [Thermo Fisher ScientificTM, 13-3249-82]) was mixed with the cell suspension solution, and the cell was incubated on ice for 30 minutes. Next, the cells were washed three times with ice-cold Cell Staining Buffer, and then kept on ice until binding of barcoded DNA. […] The cell suspension solution was filtered through 40 μm cell strainer, the same number of cells from each sample was gathered in a single tube and used for cell trapping and cDNA synthesis using a BD RhapsodyTM apparatus. First, by the same method as in the above 1-3, SINGLE CELL suspension solutions of undifferentiated ES cells and differentiated ES cells were prepared. […] The stained cells were analyzed by flow cytometry using EC800 Cell Analyzer (Sony Corporation), Cyto FLEX flow cytometer (Beckman Coulter, Inc.), or […] flow cytometer (BD Biosciences). […]

[4] = test system: differentiated ES cells (R1, embryoid body formation); test: as above; format: cell-based, mouse; conditions: TotalSeq PE streptavidin detection
Description: After removing the feeder cells, 1×10^4 ES cells were seeded in 100 μL differentiation medium (GMEM supplemented with 15% FBS, 0.11 mg/mL sodium pyruvate, 0.1 mM 2-mercaptoethanol, 1×non-essential amino acid, and 1×GlutaMAX supplement) in a U-bottom 96-well low cell attachment plate (Nunclon Sphera 96-Well U-Shaped-Bottom Microplate; Thermo Fisher ScientificTM, 174925), and cultured for 24 hours. Spheroids made in the plate were transferred to a 90 mm, low cell attachment culture dish (Nunclon Sphera 90 mm dish, 174945), and cultured for further 4 days to form embryoid bodies (EBs). The EBs were washed three times with PBS, dissociated into […] CELLs (group of single cells) using 0.25% trypsin, the cells were seeded on a gelatin-treated culture dish, and cultured for 7 days to induce further differentiation. Single cells containing 0.5-2×10^6 […] CELLs prepared in “3. […] After incubation on ice, 3 mL ice-cold PBS containing 3% FBS was added to the reaction, and the cells were centrifuged at 4° C., 300 g for 5 minutes. The cells were further washed twice with Cell Staining Buffer (BioLegend, Inc., 420201), and then kept on ice until barcoded oligo DNA binding in the next step. […] The stained cells were analyzed by flow cytometry using EC800 Cell Analyzer (Sony Corporation), Cyto FLEX flow cytometer (Beckman Coulter, Inc.), or […] flow cytometer (BD Biosciences). […]

[5] = Storage stability of S-NHS-biotin stock solution; format: physicochemical; conditions: stock solution at −80° C.
Description: A S-NHS-biotin stock solution was prepared by dissolving EZ-Link sulfo-NHS-biotin (Thermo Fisher Scientific™, 21217) in PBS at a concentration of 10 mg/mL, and dispensed and stored at […] until use.

[6] = test system: mouse growth plate chondrocytes; test: Flow cytometry of labeled growth plate chondrocytes; format: cell-based; conditions: mouse growth plate chondrocytes (FIG. 11)
Description: (§1) Specifically, healthy F344 rat lungs were cut into 0.5 mm^2 with razor blade, digested in a Liberase solution [RPMI-1640 (Natalai Tesque)] added with 10% FBS, 10 mM HEPES pH 7.2-7.4, 0.25 mg/ml Liberase™ (F. Hoffmann-La Roche Ltd.), and 2000 U/mL DNase I (Merck KGaA) for 60 minutes at 37° C. to prepare a SINGLE CELL suspension solution. Dead cells were removed by Percoll. Alternatively, growth plate cartilage from proximal tibia was collected from 3-week-old mice and cut finely into 1 to 2 mm pieces. Next, the cut pieces were dispersed into SINGLE CELLs (group of single cells) with Liberse™ (F. Hoffmann-La Roche Ltd.) solution for 120 to 210 minutes while continuously agitating.
(§2) Reagents for cell staining were biotinylated CDC324 (E-cadherin) rat monoclonal antibody (Thermo Fisher Scientific™, 13-3249-82), TotalSeq® PE streptavidin (BioLegend, Inc., 405251), PerCP-Cy5.5 anti-rat CD45 (Bio-Rad Laboratories, Inc., clone OX-1), PE anti-rat CD31 (Bio-Rad Laboratories, Inc., Clone TLD-3A12), streptavidin-APC (BioLegend, Inc., 405207), APC rat anti-mouse CD45 (BD Biosciences, 559864), and PE anti-mouse H-2 antibody (BioLegend, Inc., 125505).
(§3) The stained cells were analyzed by flow cytometry using EC800 Cell Analyzer (Sony Corporation), Cyto FLEX flow cytometer (Beckman Coulter, Inc.), or FACS Arria II flow cytometer (BD Biosciences).

[7] = test system: undifferentiated ES cells; test: Cell viability test (colony formation); format: cell-based, mouse
Description: Undifferentiated ES cells were treated with 100 μg/mL S-NHS-biotin (10-fold the concentration used for multiplex scRNA-seq) and TotalSeq® PE streptavidin, and 3×10^3 cells were seeded on a 3.5 cm, gelatin-treated culture dish. Concurrently, the same number of untreated cells were seeded. After 5-day culture, the cells were stained with hematoxylin, and the colony formation ratios of untreated control and treated sample were examined.
A series of experimental operations by the USB method has a possibility to compromise cell states and growth. To examine this possibility, ES cells were treated by the USB method, and seeded on a culture dish to measure colony formation ability (FIG. 7). As a result, even though cells were treated with S-NHS-biotin at a concentration 10-fold the concentration used in the USB method (0.1 mg/mL), the difference of colony formation rates between the control group without labeling and the USB group were not observed. Consequently, the USB method was concluded to not change the cell viability.

[8] = test system: rat lung cells (CD31 positive, CD45 positive, double negative); test: Flow cytometry of USB labeling of fractionated lung cells (APC-labeled streptavidin); format: cell-based; conditions: CD45 positive and double negative fractions (FIG. 12)
Description: as §1, §2, §3

UniProt P09803, sequence (P09803 157-884): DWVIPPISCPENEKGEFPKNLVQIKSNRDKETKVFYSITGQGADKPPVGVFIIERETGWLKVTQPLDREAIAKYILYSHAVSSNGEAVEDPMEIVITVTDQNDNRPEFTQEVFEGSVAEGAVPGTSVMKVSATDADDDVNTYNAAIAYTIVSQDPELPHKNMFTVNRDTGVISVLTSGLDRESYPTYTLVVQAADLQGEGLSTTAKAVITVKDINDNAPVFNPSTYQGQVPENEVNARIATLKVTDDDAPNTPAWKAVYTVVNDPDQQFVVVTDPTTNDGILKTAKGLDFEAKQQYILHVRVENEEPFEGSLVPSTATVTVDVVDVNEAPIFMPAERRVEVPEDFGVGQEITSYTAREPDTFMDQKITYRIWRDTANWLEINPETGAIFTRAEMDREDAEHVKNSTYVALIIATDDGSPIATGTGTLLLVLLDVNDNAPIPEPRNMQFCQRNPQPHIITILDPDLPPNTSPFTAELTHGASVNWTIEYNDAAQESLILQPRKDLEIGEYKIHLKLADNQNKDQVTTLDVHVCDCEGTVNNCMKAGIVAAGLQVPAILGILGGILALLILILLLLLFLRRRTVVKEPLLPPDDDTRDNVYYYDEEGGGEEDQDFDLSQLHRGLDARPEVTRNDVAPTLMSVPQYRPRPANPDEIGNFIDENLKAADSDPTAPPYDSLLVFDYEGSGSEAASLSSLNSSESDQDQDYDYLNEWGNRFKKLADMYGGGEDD

| Substance | percent PE-positive cells [1] [%] | percent PE-positive cells [2] [%] | percentage of PE-positive cells [3] [%] | percentage of PE-positive cells [4] [%] | time stock solution is stable [5] | labeling/staining of chondrocytes [6] | difference of colony formation rates between the control group without labeling and the USB group ([7]; S-NHS-biotin 0.1 mg/mL (10-fold the concentration used in the USB method), 5-day culture) | effect on viability of undifferentiated ES cells ([7]; S-NHS-biotin treated vs control untreated cells (FIG. 7)) | labeling of fractionated lung cells [8] |
| --- | --- | --- | --- | --- | --- | --- | --- | --- | --- |
| biotinylated CDC324 [E-cadherin] rat monoclonal antibody [Thermo Fisher Scientific, 13-3249-82] | 87.8 | 9.9 |  |  |  |  |  |  |  |
| sulfo-N-hydroxysuccinimide-biotin [S-NHS-biotin] |  |  | 99.6 | 96.4 | more than 1 year | efficiently labeled | not observed | does not affect the viability | All fractionated cells were found to have been labeled |

— patent US20240384344A1, “METHOD FOR LABELING CELLS” (RIKEN, priority 2022, published 2024)
